Experimental data reported in patent publication US20150374705A1, “Substances for treatment or relief of pain” (Shanghai Institues for Biological Sciences, priority 2012, published 2015).

Key:
Assay type in all cases: in vivo
[1] = system: SNI model rats (neuropathic pain); assay: Spared nerve injury (SNI) model, neuropathic pain, mechanical pain threshold; conditions: rat, intrathecal injection 7 days after SNI, threshold at 9-17 days
Summary of the method: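 Male SD rats (200-250 g, n=6) with spared nerve injury (tibial and common peroneal ligated and cut, sural spared) were tested blind. Von Frey filaments (1-50 g) on the plantar paw gave the 50% withdrawal threshold. Compounds in 70% PEG400 were injected at 2-3 mg/kg; MRK016-M3 in 90% PEG400 was given orally at 0.3-10 mg/kg; unpaired t-test.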

[2] = system: CFA induced inflammatory pain model rats (heat pain); assay: CFA induced inflammatory pain model, heat pain threshold; conditions: rat, spinal injection the day before CFA, measured every day
[3] = system: CFA induced inflammatory pain model rats (mechanical pain); assay: CFA induced inflammatory pain model, mechanical pain threshold; conditions: rat, spinal injection the day before CFA, measured every day
[4] = system: α5 subunit protein of GABAA receptor in dorsal root ganglion; assay: Knock-down of α5 subunit of GABAA receptor in dorsal root ganglion, western blot; conditions: rat, intrathecal injection
Experimental: In western blot experiment, obtained dorsal root ganglion was lysed in RIPA (50 mM Tris (pH7.4), 150 mM NaCl, 1% Triton X-100, 1% sodium deoxycholate, 0.1% SDS as well as sodium orthovanadate, sodium fluoride, EDTA and leupeptin. The proteins were boiled at 100° C. for 5 minutes for denaturation. 10-20 μl samples were added into the prepared channels after the protein samples became cool. Then, electrophoresis was conducted at 60 V for 30 minutes. After the samples passed the boundary between the upper layer gel and the lower layer gel, the voltage was adjusted to 90 V until bromophenol blue reached the lower edge of the lower layer gel. After electrophoresis, the SDS gel that contained target bands was cut for transferring. Through electric transferring, the negative charged proteins were transferred to positive charged PVDF membrane. The blocking buffer that contained 5% skim milk powder was used to block the membrane for 1 hour to reduce unspecific binding. Then, the PVDF membrane was immersed in the blocking buffer containing primary antibody and incubated overnight at 4° C. or 1-2 hours at room temperature. […] Finally, PVDF membrane was incubated with the substrate of horse radish peroxidase ECL-PLUS for 5 minutes in dark to produce fluorescence signal. Then X-ray film was used to capture the fluorescence signal on PVDF membrane. […]

siRNA specific to the mRNA of α5-GABAA receptor: siRNA, sequence 5′GGUGCGAACAGACAUCUAUTT 3′ (chemistry not given here)
Pain threshold in SNI model after siRNA [1]: significantly elevated pain threshold | Heat pain threshold after siRNA [2]: inhibit the inflammatory pain efficiently | Mechanical pain threshold after siRNA [3]: inhibit the inflammatory pain efficiently | Expression of the α5 subunit of GABAA receptor in dorsal root ganglion [4]: significantly knocked-out the expression
